Reference: patent US20090005403A1, “Alkinyl-Oxypyrimidines Used in the Form of Pesticides” (priority 2005, published 2009)

How the values were obtained:
[1] = logP determination by HPLC on reversed-phase column (EEC Directive 79/831 annex V.A8); assay type: physicochemical
Experimental: Calibration was carried out using unbranched alkan-2-ones (having 3 to 16 carbon atoms) with known logP values (determination of logP values by the retention times using linear interpolation between two successive alkanone).

[2] = test system: green peach aphid (Myzus persicae); test: Myzus test (MYZUPE spray treatment); assay type: in vivo; details: 500 g/ha, spray treatment of Chinese cabbage disks, 100% = all aphids killed
Experimental: Myzus Test (MYZUPE Spray Treatment)
To produce a suitable preparation of active compound, 1 part by weight of active compound is mixed with the stated amounts of solvents and emulsifier, and the concentrate is diluted with emulsifier-containing water to the desired concentration.
Disks of Chinese cabbage (Brassica pekinensis) which are infested by all stages of green peach aphid (Myzus persicae) are sprayed with a preparation of active compound of the desired concentration.
(§1) After the desired period of time, the effect in % is determined. 100% means that all aphids have been killed; 0% means that none of the aphids have been killed.

[3] = test system: cotton aphid (Aphis gossypii); test: Aphis gossypii test (APHIGO); assay type: in vivo; details: 100 ppm, cotton leaves dipped, 100% = all aphids killed
Experimental: Aphis Gossypii Test (APHIGO)
To produce a suitable preparation of active compound, 1 part by weight of active compound is mixed with the stated amounts of solvent and emulsifier, and the concentrate is diluted with emulsifier-containing water to the desired concentration.
Cotton leaves (Gossypium hirsutum) which are heavily infested by the cotton aphid (Aphis gossypii) are treated by being dipped into the preparation of active compound of the desired concentration.
After the desired period of time, the kill in % is determined. 100% means that all aphids have been killed; 0% means that none of the aphids have been killed.

Myzus persicae = Myzus persicae (MYZUPE U); assay type: in vivo; details: 30 ppm, ingestion, 100% = all aphids killed
Experimental: Myzus Persicae (MYZUPE U)
To produce a suitable preparation of active compound, the active compound is mixed with the stated amounts of solvent, and the concentrate is diluted with stained water to the desired concentration.
The Myzus persicae are provided with a preparation of active compound of the desired concentration for ingestion.
as §1

[4] = reversed-phase C18 HPLC column, HPLC, reversed-phase C 18, 43° C., acidic range (pH 2.3), marked a)
[5] = reversed-phase HPLC column, in the preparation example, pH range not marked

Compound	chromatographic logP [1, 4]	chromatographic logP [1, 5]	effect in % (% 5 d) [2]	kill in % (% 6 d) [3]	effect in % (% 6-7 d) (Myzus persicae)
CC#CCOc1cc(-n2cccn2)ncn1 [Example 8]	2.55		90%		
CC#CCOc1cc(-n2ccnc2)ncn1 [Example 12]	1				100%
Clc1cc(-c2ccsc2)ncn1 [II-1, 4-chloro-6-(3-thienyl)pyrimidine]		2.31			

More lines, main results first:

chromatographic logP [1, 4]	chromatographic logP [1, 5]	Compound	effect in % (% 5 d) [2]	kill in % (% 6 d) [3]	effect in % (% 6-7 d) (Myzus persicae)
3.26		CC#CCOc1cc(-c2cscc2C)ncn1 [Example 25]	80%	80%	
	2.84	CC#CCOc1cc(-c2ccsc2)ncn1 [Example 1, 4-(2-butyn-1-yl-oxy)-6-(3-thienyl)-pyrimidine]			
2.31		CC#CCOc1cc(-c2ccccn2)ncn1 [Example 3]	80%		
2.95		CC#CCOc1cc(-c2cccs2)ncn1 [Example 6]	90%		
	3.65	CC#CCOc1cc(-n2cc(Cl)cn2)ncn1 [Example 2, 4-butynyloxy-6-(4-chloropyrazol-1-yl)pyrimidine]			
